# Test results published in PubChem BioAssay (NCI).
#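 Where inhibition never reached the appropriate level, the endpoint shown equals the highest concentration tested. Otherwise, values were interpolated linearly from a five-concentration, 48-hour dose response in 96-well plates. GI50 = concentration required for 50% inhibition of growth. TGI: total growth inhibition.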
# Columns and labels:
# Test in all cases: inhibition of tumour cell growth, NCI panel, 48 h
# 786-0 renal = tested on: 786-0 renal
# A498 renal = tested on: A498 renal
# A549 NSCLC = tested on: A549 NSCLC
# ACHN renal = tested on: ACHN renal
# BT-549 breast = tested on: BT-549 breast
# CAKI-1 renal = tested on: CAKI-1 renal
# CCRF-CEM leukemia = tested on: CCRF-CEM leukemia
# COLO 205 colon = tested on: COLO 205 colon
# DU-145 prostate = tested on: DU-145 prostate
# HCC-2998 colon = tested on: HCC-2998 colon
# HCT-116 colon = tested on: HCT-116 colon
# HCT-15 colon = tested on: HCT-15 colon
# HL-60(TB) leukemia = tested on: HL-60(TB) leukemia
# HOP-62 NSCLC = tested on: HOP-62 NSCLC
# HOP-92 NSCLC = tested on: HOP-92 NSCLC
# HS 578T breast = tested on: HS 578T breast
# HT29 colon = tested on: HT29 colon
# IGROV1 ovarian = tested on: IGROV1 ovarian
# K-562 leukemia = tested on: K-562 leukemia
# KM12 colon = tested on: KM12 colon
# LOX IMVI melanoma = tested on: LOX IMVI melanoma
# M14 melanoma = tested on: M14 melanoma
# MALME-3M melanoma = tested on: MALME-3M melanoma
# MCF7 breast = tested on: MCF7 breast
# MDA-MB-231 breast = tested on: MDA-MB-231 breast
# MDA-MB-435 = tested on: MDA-MB-435
# MOLT-4 leukemia = tested on: MOLT-4 leukemia
# NCI-H226 lung = tested on: NCI-H226 lung
# NCI-H23 lung = tested on: NCI-H23 lung
# NCI-H460 lung = tested on: NCI-H460 lung
# NCI-H522 lung = tested on: NCI-H522 lung
# NCI/ADR-RES ovarian = tested on: NCI/ADR-RES ovarian
# OVCAR-3 ovarian = tested on: OVCAR-3 ovarian
# OVCAR-4 ovarian = tested on: OVCAR-4 ovarian
# OVCAR-5 ovarian = tested on: OVCAR-5 ovarian
# OVCAR-8 ovarian = tested on: OVCAR-8 ovarian
# PC-3 prostate = tested on: PC-3 prostate
# RPMI-8226 leukemia = tested on: RPMI-8226 leukemia
# RXF 393 renal = tested on: RXF 393 renal
# SF-268 CNS = tested on: SF-268 CNS
# SF-295 CNS = tested on: SF-295 CNS
# SF-539 CNS = tested on: SF-539 CNS
# SK-MEL-2 melanoma = tested on: SK-MEL-2 melanoma
# SK-MEL-28 melanoma = tested on: SK-MEL-28 melanoma
# SK-MEL-5 melanoma = tested on: SK-MEL-5 melanoma
# SK-OV-3 ovarian = tested on: SK-OV-3 ovarian
# SN12C renal = tested on: SN12C renal
# SNB-19 CNS = tested on: SNB-19 CNS
# SNB-75 CNS = tested on: SNB-75 CNS
# SR leukemia = tested on: SR leukemia
# SW-620 colon = tested on: SW-620 colon
# T-47D breast = tested on: T-47D breast
# TK-10 renal = tested on: TK-10 renal
# U251 CNS = tested on: U251 CNS
# UACC-257 melanoma = tested on: UACC-257 melanoma
# UACC-62 melanoma = tested on: UACC-62 melanoma
# UO-31 renal = tested on: UO-31 renal
smiles,measurement,setting,value
Cn1cc(C2=C(Sc3ccccc3)C(=O)NC2=O)c2ccccc21,GI50,786-0 renal,> 16.4 µM
same,TGI,786-0 renal,> 25 µM
same,GI50,A498 renal,> 23.1 µM
same,TGI,A498 renal,> 25 µM
same,GI50,A549 NSCLC,> 22.4 µM
same,TGI,A549 NSCLC,> 25 µM
same,GI50,ACHN renal,6.23 µM
same,TGI,ACHN renal,> 17.3 µM
same,GI50,BT-549 breast,9.49 µM
same,TGI,BT-549 breast,> 20.7 µM
same,GI50,CAKI-1 renal,> 18.1 µM
same,TGI,CAKI-1 renal,> 25 µM
same,GI50,CCRF-CEM leukemia,7.7 µM
same,TGI,CCRF-CEM leukemia,> 25 µM
same,GI50,COLO 205 colon,> 16.2 µM
same,TGI,COLO 205 colon,> 25 µM
same,GI50,DU-145 prostate,13.8 µM
same,TGI,DU-145 prostate,> 25 µM
same,GI50,HCC-2998 colon,> 12.3 µM
same,TGI,HCC-2998 colon,> 18.2 µM
same,GI50,HCT-116 colon,7.41 µM
same,TGI,HCT-116 colon,> 16.9 µM
same,GI50,HCT-15 colon,7.87 µM
same,TGI,HCT-15 colon,> 19.1 µM
same,GI50,HL-60(TB) leukemia,8.4 µM
same,TGI,HL-60(TB) leukemia,23.5 µM
same,GI50,HOP-62 NSCLC,> 25 µM
same,TGI,HOP-62 NSCLC,> 25 µM
same,GI50,HOP-92 NSCLC,24.5 µM
same,TGI,HOP-92 NSCLC,> 25 µM
same,GI50,HS 578T breast,> 18.2 µM
same,TGI,HS 578T breast,> 25 µM
same,GI50,HT29 colon,> 18.7 µM
same,TGI,HT29 colon,> 25 µM
same,GI50,IGROV1 ovarian,10.5 µM
same,TGI,IGROV1 ovarian,> 25 µM
same,GI50,K-562 leukemia,12.9 µM
same,TGI,K-562 leukemia,> 25 µM
same,GI50,KM12 colon,> 25 µM
same,TGI,KM12 colon,> 25 µM
same,GI50,LOX IMVI melanoma,4.7 µM
same,TGI,LOX IMVI melanoma,10.2 µM
same,GI50,M14 melanoma,24.2 µM
same,TGI,M14 melanoma,> 25 µM
same,GI50,MALME-3M melanoma,> 13.2 µM
same,TGI,MALME-3M melanoma,> 20.2 µM
same,GI50,MCF7 breast,7.83 µM
same,TGI,MCF7 breast,> 20.6 µM
same,GI50,MDA-MB-231 breast,12.1 µM
same,TGI,MDA-MB-231 breast,> 25 µM
same,GI50,MDA-MB-435,10 µM
same,TGI,MDA-MB-435,> 25 µM
same,GI50,MOLT-4 leukemia,7.9 µM
same,TGI,MOLT-4 leukemia,> 25 µM
same,GI50,NCI-H226 lung,> 25 µM
same,TGI,NCI-H226 lung,> 25 µM
same,GI50,NCI-H23 lung,> 22.2 µM
same,TGI,NCI-H23 lung,> 25 µM
same,GI50,NCI-H460 lung,> 25 µM
same,TGI,NCI-H460 lung,> 25 µM
same,GI50,NCI-H522 lung,3.29 µM
same,TGI,NCI-H522 lung,8.44 µM
same,GI50,NCI/ADR-RES ovarian,> 25 µM
same,TGI,NCI/ADR-RES ovarian,> 25 µM
same,GI50,OVCAR-3 ovarian,9.57 µM
same,TGI,OVCAR-3 ovarian,> 22.5 µM
same,GI50,OVCAR-4 ovarian,> 18.3 µM
same,TGI,OVCAR-4 ovarian,> 25 µM
same,GI50,OVCAR-5 ovarian,> 25 µM
same,TGI,OVCAR-5 ovarian,> 25 µM
same,GI50,OVCAR-8 ovarian,> 14.2 µM
same,TGI,OVCAR-8 ovarian,> 25 µM
same,GI50,PC-3 prostate,> 25 µM
same,TGI,PC-3 prostate,> 25 µM
same,GI50,RPMI-8226 leukemia,9.19 µM
same,TGI,RPMI-8226 leukemia,> 25 µM
same,GI50,RXF 393 renal,7.2 µM
same,TGI,RXF 393 renal,> 17.6 µM
same,GI50,SF-268 CNS,> 15.2 µM
same,TGI,SF-268 CNS,> 25 µM
same,GI50,SF-295 CNS,> 25 µM
same,TGI,SF-295 CNS,> 25 µM
same,GI50,SF-539 CNS,> 25 µM
same,TGI,SF-539 CNS,> 25 µM
same,GI50,SK-MEL-2 melanoma,> 13.6 µM
same,TGI,SK-MEL-2 melanoma,> 21.8 µM
same,GI50,SK-MEL-28 melanoma,> 12.8 µM
same,TGI,SK-MEL-28 melanoma,> 22.7 µM
same,GI50,SK-MEL-5 melanoma,> 15.1 µM
same,TGI,SK-MEL-5 melanoma,> 25 µM
same,GI50,SK-OV-3 ovarian,> 25 µM
same,TGI,SK-OV-3 ovarian,> 25 µM
same,GI50,SN12C renal,> 14.9 µM
same,TGI,SN12C renal,> 25 µM
same,GI50,SNB-19 CNS,> 25 µM
same,TGI,SNB-19 CNS,> 25 µM
same,GI50,SNB-75 CNS,> 25 µM
same,TGI,SNB-75 CNS,> 25 µM
same,GI50,SR leukemia,9.81 µM
same,TGI,SR leukemia,> 25 µM
same,GI50,SW-620 colon,9.69 µM
same,TGI,SW-620 colon,> 16.5 µM
same,GI50,T-47D breast,7.56 µM
same,TGI,T-47D breast,> 17.2 µM
same,GI50,TK-10 renal,> 13.6 µM
same,TGI,TK-10 renal,> 20.4 µM
same,GI50,U251 CNS,> 25 µM
same,TGI,U251 CNS,> 25 µM
same,GI50,UACC-257 melanoma,> 12 µM
same,TGI,UACC-257 melanoma,> 21.2 µM
same,GI50,UACC-62 melanoma,> 13.7 µM
same,TGI,UACC-62 melanoma,> 25 µM
same,GI50,UO-31 renal,8.84 µM
same,TGI,UO-31 renal,> 14.3 µM
